# According to PMC8214221, “Sequence determinants in the cathelicidin LL-37 that promote inflammation via presentation of RNA to scavenger receptors” (The Journal of Biological Chemistry, 2021):
# Residues, ends and D or L forms follow the SMILES beside them.
# Assays:
# [1] = tested on: S. aureus strain USA300 and SA112, GAS; assay: Bacterial growth inhibition (OD600), Gram-positive strains; type: cell-based, Staphylococcus aureus; group A Streptococcus; details: 0-50 µM overnight, OD 600, n = 3, S. aureus USA300, SA113 (SA112 in text)
# Method: (§1) We further looked at mRNA abundance by quantitative RT-PCR (qRT-PCR) to evaluate gene expression for type 1 interferon IFNB1, chemokine CXCL10, and cytokines TSLP and IL6 in NHEKs treated with selected LL-34 parent, LL-34—F5A, I24A, F27A, and L31A—peptides either alone or in combination with U1 dsRNA for 18 h (Fig. 1, E–H).
# (§2) Methicillin-resistant S. aureus USA300 and methicillin-sensitive S. aureus SA113 (American Type Culture Collection 35556) were cultured in 3% tryptic soy broth overnight at 37 °C with shaking at 250 rpm. GAS M49 strain NZ131 was cultured in Todd Hewitt broth supplemented with 1% yeast extract overnight at 37 °C without shaking. E. coli R1 strain RS218 was cultured in LB broth overnight at 37 °C with shaking at 250 rpm. MIC values were determined using a round-bottom 96-well microdilution method with RPMI cell culture media (as a source of Ca^2+ and Mg^2+) supplemented with tryptic soy broth, Todd Hewitt broth/yeast extract, or LB to facilitate growth of the respective bacterial strains. Overnight bacterial cultures were subcultured into fresh broth and grown to midlate log phase indicated by an absorbance at 600 nm value between 0.8 and 1.0 for each bacterial strain. The absorbance was then normalized to provide a concentration of 1 × 10^7 colony-forming units/ml in RPMI medium. The LL-34 parent and alanine scan mutants were serially diluted into the 96-well microtiter plates containing prewarmed RPMI bacterial growth medium. A 10 μl aliquot of the midlate log phase bacteria was inoculated into the 96-well microtiter plates that contained 95 μl of RPMI medium with or without the LL-34 peptide dilutions and incubated for 16 to 18 h at […] with shaking at 200 rpm. Inhibition of growth was determined by measuring the absorbance at 600 nm readings of each well using a microplate reader (Infinite M200 Pro; Tecan). The MIC of each bacterial strain was determined by the lowest peptide concentration that inhibited more than 80% bacterial growth.
# (§3) (A) NHEKs and HDMECs (B) were treated with LL34- parent peptide and all the 34 alanine substituted peptides (Pep L1A-Pep R34A) and LL37 at 2 µM for 16 h. IL-6 protein secretion was assessed with ELISA (n=3) (C-F) LL34-Parent, LL34 F5A, LL34 I24A, LL34 F27A, and LL34 L31A peptides were incubated with S. aureus USA 300, S. aureus SA113, Group A Streptococcus (GAS) and E. coli at increasing concentrations (0-50 µM) overnight, and bacterial culture growth was assayed as absorbance at OD 600 (n=3).
# [2] = tested on: Escherichia coli; assay: Bacterial growth inhibition (OD600), E. coli; type: cell-based; details: 0-50 µM overnight, OD 600, n = 3
# Method: as §1, §2, §3
# [3] = tested on: normal human epidermal keratinocytes (NHEKs); assay: LDH release cytotoxicity assay in keratinocytes; type: cell-based; details: minimal concentration giving 50% LDH release by NHEKs
# Summary of the method: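 Normal human epidermal keratinocytes were exposed to LL-34 parent and alanine-substituted peptides. Cytotoxicity was read as LDH release in fresh culture supernatants after treatment, using a commercial kit, and reported as the minimal concentration showing toxicity.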
# [4] = tested on: U1 dsRNA binding on the surface of NHEKs; assay: Surface binding of Alexa 488-labeled U1 dsRNA to NHEKs; type: cell-based, human; details: Alexa 488 U1 0.05-10 μg/ml + peptide 2.5 μM, 10 min on ice; fluorometer RFU, n = 3
# Method: We also assayed the dynamics of binding of U1 dsRNA on the surface of NHEKs in the presence of LL-34 mutant peptides. NHEKs were exposed to fluorescent Alexa 488–labeled U1 at increasing concentrations (0.05–10 μg/ml) and LL-34 parent peptide, LL-34 I24A, LL-34 L31A, LL-34 K25A, and LL-34 proline at isoleucine position 20 (I20P) for 10 min on ice to allow for surface binding of U1 to cells in the presence of peptides (Fig. 5A).
# Figure 5 Biophysical properties of binding of U1 dsRNA to LL-34 peptides and SRB1 protein.A, NHEKs were treated with Alexa 488–labeled U1 dsRNA or a combination of Alexa 488–labeled U1 dsRNA (0.05–10 μg/ml) and LL-34 peptides LL-34 parent, LL-34 I24A, LL-34 K25A, LL-34 L31A, and LL-34 I20P at 2.5 μM as shown. The cells were prechilled on ice for 15 min before the addition of U1 dsRNA and/or LL-34 peptides, and the surface binding of U1 dsRNA was allowed for 10 min. The amount of U1 dsRNA binding to NHEKs was assessed with a fluorometer, and data are represented as relative fluorescence units (RFUs) (n = 3). B, NHEKs were similarly treated with Alexa-labeled U1 dsRNA (1.5 μg/ml) and/or unlabeled U1 dsRNA (15 μg/ml) with the addition of LL-34 parent peptide at 2.5 μM. The experiment was performed on ice for 10 min, and the relative binding of Alexa 488 U1 dsRNA was assessed on a fluorometer and is shown as RFU (n = 3) (∗p < 0.05) one-way ANOVA. C, SAXS spectra of LL-34 peptides LL-34 parent, LL-34 F5A, LL-34 I24A, and LL-34 L31A incubated with U1 dsRNA. The peptide-U1 dsRNA (P/R) ratio is varied at 1 and 2 for all conditions. The U1 dsRNA interhelical spacing (Q) was calculated by the peak position. The domain size (L) was calculated by the full width at half maximum of the first peak. LL-34, 34-amino acid peptide; NHEKs, normal human epidermal keratinocytes; SAXS, small-angle X-ray scattering.
SMILES,Capacity to inhibit growth of Gram-positive bacteria [1],Action against Gram-negative E. coli [2],Minimal cytotoxic concentration in NHEK (LD50) [3] [µM],Binding of Alexa 488-labeled U1 dsRNA on the NHEK cell surface [4]
CC[C@H](C)[C@H](NC(=O)[C@H](CCCCN)NC(=O)[C@H](CCC(=O)O)NC(=O)[C@H](CCCCN)NC(=O)[C@H](CO)NC(=O)[C@H](CCCCN)NC(=O)[C@H](CCCNC(=N)N)NC(=O)[C@H](Cc1ccccc1)NC(=O)[C@H](Cc1ccccc1)NC(=O)[C@H](CC(=O)O)NC(=O)CNC(=O)[C@H](CC(C)C)NC(=O)[C@@H](N)CC(C)C)C(=O)NCC(=O)N[C@@H](CCCCN)C(=O)N[C@@H](CCC(=O)O)C(=O)N[C@@H](Cc1ccccc1)C(=O)N[C@@H](CCCCN)C(=O)N[C@@H](CCCNC(=N)N)C(=O)N[C@H](C(=O)N[C@H](C(=O)N[C@@H](CCC(N)=O)C(=O)N[C@@H](CCCNC(=N)N)C(=O)N[C@@H](C)C(=O)N[C@@H](CCCCN)C(=O)N[C@@H](CC(=O)O)C(=O)N[C@@H](Cc1ccccc1)C(=O)N[C@@H](CC(C)C)C(=O)N[C@@H](CCCNC(=N)N)C(=O)N[C@@H](CC(N)=O)C(=O)N[C@@H](CC(C)C)C(=O)N[C@H](C(=O)N1CCC[C@H]1C(=O)N[C@@H](CCCNC(=N)N)C(=O)O)C(C)C)C(C)C)[C@@H](C)CC [LL-34—I24A] (H-LLGDFFRKSKEKIGKEFKRIVQRAKDFLRNLVPR-OH),increased capacity to inhibit growth of most of the tested Gram-positive bacteria,little action,20,nonsaturable binding
CC[C@H](C)[C@H](NC(=O)[C@H](CCCCN)NC(=O)[C@H](CCC(=O)O)NC(=O)[C@H](CCCCN)NC(=O)[C@H](CO)NC(=O)[C@H](CCCCN)NC(=O)[C@H](CCCNC(=N)N)NC(=O)[C@H](Cc1ccccc1)NC(=O)[C@H](Cc1ccccc1)NC(=O)[C@H](CC(=O)O)NC(=O)CNC(=O)[C@H](CC(C)C)NC(=O)[C@@H](N)CC(C)C)C(=O)NCC(=O)N[C@@H](CCCCN)C(=O)N[C@@H](CCC(=O)O)C(=O)N[C@@H](Cc1ccccc1)C(=O)N[C@@H](CCCCN)C(=O)N[C@@H](CCCNC(=N)N)C(=O)N[C@H](C(=O)N[C@H](C(=O)N[C@@H](CCC(N)=O)C(=O)N[C@@H](CCCNC(=N)N)C(=O)N[C@H](C(=O)N[C@@H](CCCCN)C(=O)N[C@@H](CC(=O)O)C(=O)N[C@@H](Cc1ccccc1)C(=O)N[C@@H](CC(C)C)C(=O)N[C@@H](CCCNC(=N)N)C(=O)N[C@@H](CC(N)=O)C(=O)N[C@@H](C)C(=O)N[C@H](C(=O)N1CCC[C@H]1C(=O)N[C@@H](CCCNC(=N)N)C(=O)O)C(C)C)[C@@H](C)CC)C(C)C)[C@@H](C)CC [LL-34—L31A] (H-LLGDFFRKSKEKIGKEFKRIVQRIKDFLRNAVPR-OH),increased capacity to inhibit growth of most of the tested Gram-positive bacteria,little action,10,nonsaturable binding
